From EP2623117A1, “Immunogenic nanomedicine composition and preparation and uses thereof” (Genetic Immunity Kft., priority 2009, dated 2010)

Assays:
293T human cells = test: In vitro biological activity assay: transfection of 293T cells, HIV-1 p24 antigen ELISA of supernatant; format: cell-based; conditions: N/P ratio of 3
Experimental: The in vitro biological activity test of the NanoComp is performed by transfection of 293T human cells. 50,000 cells are plated in 96 well plate 19 hours before transfection, using DMEM culture medium (DMEM, 1% FBS, 1% L-glutamine, 1% Penicillin-Streptomycin). 0.5µg pDNA/NanoComp is added to each well followed by 21 hours incubation at 37°C in 5% CO2 air condition. During the incubation period, the HIV-specific protein antigens encoded by the pDNA are expressed and secreted into the culture medium. After 21 hours, the supernatant of the cells are collected, and HIV-1 p24 antigen ELISA is performed to quantify p24 protein produced by the pDNA.

[1] = Side reaction of formulation solvent with PEIm (UV spectra after storage); format: physicochemical; conditions: room temperature, 2 month
Experimental: • a) NanoComp formulations were prepared according to Example 1, using the same PEIm and pDNA at N/P ratio of 3, and different solvents: sterile water, physiological NaCl (0.9%), D(+)-Mannitol (10 mg/ml), Sorbitol (10 mg/ml), D(+)-Glucose (10 mg/ml), Mannose (10 mg/ml), Sucrose (10 mg/ml), Triethanolamine buffer (TEA) (pH 7.5), D(+)-Mannitol (10 mg/ml) in triethanolamine (TEA) buffer (pH 7.5), Sorbitol (10 mg/ml) in triethanolamine buffer (pH 7.5) and D(+)-Mannitol (10 mg/ml) and Glycerol (10 mg/ml) in triethanolamine buffer (pH 7.5). The biological activity is given procentual related to the biological activity of the formulation in sterile water. Results are shown in Fig. 7A. • b) PEIm solution, mixture of PEIm with Glucose (10%) and Mannitol (10%) respectively, NanoComp formulations with Glucose (10%) and Mannitol (10%) were prepared according to Example 1, the missing component in all mixtures were replaced with water, to ensure the same concentration of the components. The prepared solutions were stored at room temperature (approx. 25°C) for 2 month. UV spectra were recorded without dilution. […] The particle size of the formed complexes was measured using ZetaPALS, Brookehaven instrument freshly and after 6 days storage at room temperature.

OC[C@@H](O)[C@@H](O)[C@H](O)[C@H](O)CO [mannitol, D(+)-Mannitol]
effect of solvent on the biological activity of the NanoComp compared to sterile water (293T human cells): same improving effect on the biological activity | side reaction of solvent with PEIm over time [1]: without side reactions with PEIm
